Publication PMC8308784, “Novel Purine Chemotypes with Activity against Plasmodium falciparum and Trypanosoma cruzi” (Pharmaceuticals, 2021)
Like-named read-outs stand apart in the source and are kept apart here.

Assays:
Assay type in all cases: cell-based
P. falciparum 3D7 = assay: P. falciparum primary screening at three fixed concentrations; conditions: average of at least three experiments; for activity at 1 µM / activity at 10 µM / activity at 100 µM: Plasmodium falciparum, read-out: Primary screening, parasite growth relative to the negative control; for activity at 1 µM: 3D7, compound at 1 µM; for activity at 10 µM: 3D7, compound at 10 µM; for activity at 100 µM: 3D7, compound at 100 µM
Protocol: Apicomplexan parasite cultures were maintained at 3% hematocrit under an atmosphere of 37 °C in 93% N2, 5% CO2, and 2% O2, following standard methods. Synchronized cultures were obtained via 5% sorbitol lysis.
[…] Conditions were tested in triplicate for every concentration, and the test was repeated when the standard deviation was above 10% for any concentration. Z-values varied between 0.83 and 0.98 in the different plates analyzed. Selected compounds (12.3% potential hit rate) were further analyzed via standard growth inhibition assays, carried out as previously described in [54]. Briefly, parasitemia was adjusted to 1–1.3%, with >90% rings after sorbitol synchronization. Two hundred microliters of parasite culture were plated in 96-well microplates and incubated for 48 h at 37 °C in the presence of decreasing concentrations of the tested compounds, in triplicate. Parasitemia was determined by fluorescence-assisted cell sorting (FACS). Non-infected RBCs and samples containing parasitized RBCs (including controls with DMSO as carrier solvent) were diluted in PBS to a final concentration of ~1–10 × 10^6 cells/mL. The cell suspension was stained with SYTO 11 (0.5 mM stock in DMSO, Thermo Fisher Scientific, Waltham, MA, USA), to a final concentration of 0.5 μM. Samples were analyzed in a Becton Dickinson FACSCalibur. Sample excitation was carried out using a 488-nm, air-cooled argon-ion laser at a power of 15 mW, using forward and side scatter to gate the RBC population, and SYTO 11 green fluorescence (530 nm, FITC filter) was collected in a logarithmic scale. The single-cell population was selected on a forward–side scattergram, and the green fluorescence from this population was analyzed. Parasitemia was expressed as the number of parasitized cells per 100 erythrocytes.
(§1) Absorbance values derived from the anti-T. cruzi assays and fluorescence values from the anti-P. falciparum and cell toxicity assays were normalized to the controls. In the primary screening at three fixed doses, the compounds’ inhibitory activity was expressed as a percentage of the negative control (100% parasitic growth). In dose–response assays, the compounds’ IC50 and TC50 values were determined with GraphPad Prism 7 software (version 7.00, 2016), using a non-linear regression analysis model defined by the following equation: Y=100 ÷(1+10^((LogIC50−X)×HillSlope))

[1] = tested on: T. cruzi Tulahuen strain expressing β-galactosidase; assay: T. cruzi primary screening at three fixed concentrations
Protocol: (§2) T. cruzi parasites from the Tulahuen strain (discrete typing unit (DTU) VI) expressing β-galactosidase were maintained in culture by the infection of LLC-MK2 cells in DMEM supplemented with 2% FBS and 1% penicillin–streptomycin–glutamine (PSG), as described in [52]. When free-swimming trypomastigotes were released to the culture medium, they were centrifuged for 7 min at 2500 rpm and allowed to swim out of the pellet. Trypomastigotes were used to maintain the parasite cycle, or for the performance of the antiparasitic assays.
[…] Conditions were tested in triplicate for every concentration. Z-values varied between 0.81 and 0.92 in the different plates analyzed. Selected compounds (34.6% potential hit rate) were further analyzed via standard growth inhibition assays. The Z-values of dose–response assays correlated with those previously reported. For both assays, Vero cells and trypomastigotes from the Tulahuen T. cruzi strain expressing β-galactosidase were harvested, centrifuged, and resuspended in DMEM without phenol red supplemented with 1% PSG, 2% FBS, 1 mM sodium pyruvate, and 25 mM HEPES. Vero cells and trypomastigotes were counted, diluted at a concentration of 1 × 10^6 cells/mL each, and mixed 1:1 (v/v). Then, 100 μL of that mixture was added per well to the plates already containing the compounds. Each well contained 50,000 host cells and 50,000 parasites, i.e., multiplicity of infection (MOI) = 1. BNZ was used as control of maximal drug growth inhibition in each round, whereas each plate contained its own negative control (maximum parasite growth; Vero cells plus parasites without drugs) and positive control (minimum parasite growth; trypomastigote forms alone marking an enzymatic zero time or baseline galactosidase activity). After four days at 37 °C, 50 µL of a PBS solution containing 0.25% NP40 and 500 µM chlorophenol red-β-D-galactopyranoside (CPRG) substrate were added per well [32]. Plates were incubated at 37 °C for 4 h, and their absorbance read out at 590 nm using an Epoch Gene5 spectrophotometer.
as §1

[2] = tested on: T. cruzi Tulahuen strain expressing β-galactosidase; assay: anti-T. cruzi dose-response growth inhibition assay (Vero cells plus trypomastigotes, CPRG readout); conditions: anti-T. cruzi IC50 of non-progressed compounds, read-out: Dose-response assay IC50
Protocol: as §2
T. cruzi growth was primarily analyzed under three different concentrations ([…]) of the 81 compounds. Conditions were tested in triplicate for every concentration. Z-values varied between 0.81 and 0.92 in the different plates analyzed. Selected compounds (34.6% potential hit rate) were further analyzed via standard growth inhibition assays. The Z-values of dose–response assays correlated with those previously reported. For both assays, Vero cells and trypomastigotes from the Tulahuen T. cruzi strain expressing β-galactosidase were harvested, centrifuged, and resuspended in DMEM without phenol red supplemented with 1% PSG, 2% FBS, 1 mM sodium pyruvate, and 25 mM HEPES. Vero cells and trypomastigotes were counted, diluted at a concentration of 1 × 10^6 cells/mL each, and mixed 1:1 (v/v). Then, 100 μL of that mixture was added per well to the plates already containing the compounds. Each well contained 50,000 host cells and 50,000 parasites, i.e., multiplicity of infection (MOI) = 1. BNZ was used as control of maximal drug growth inhibition in each round, whereas each plate contained its own negative control (maximum parasite growth; Vero cells plus parasites without drugs) and positive control (minimum parasite growth; trypomastigote forms alone marking an enzymatic zero time or baseline galactosidase activity). After four days at 37 °C, 50 µL of a PBS solution containing 0.25% NP40 and 500 µM chlorophenol red-β-D-galactopyranoside (CPRG) substrate were added per well [32]. Plates were incubated at 37 °C for 4 h, and their absorbance read out at 590 nm using an Epoch Gene5 spectrophotometer.
as §1

[3] = compound at 1 µM, average of at least three independent experiments
[4] = compound at 10 µM, average of at least three independent experiments

Row | Structure (SMILES) | activity at 1 µM (P. falciparum 3D7) [%] | activity at 10 µM (P. falciparum 3D7) [%] | activity at 100 µM (P. falciparum 3D7) [%] | activity at 100 µM ([1]; Trypanosoma cruzi, TULAHUEN, read-out: Primary screening, growth inhibition values at 100 µM) [%] | activity at 1 µM ([1]; Trypanosoma cruzi, TULAHUEN, compound at 1 µM, average of at least three independent experiments, read-out: Primary screening, growth inhibition values at 1 µM) [%] | activity at 10 µM ([1]; Trypanosoma cruzi, TULAHUEN, compound at 10 µM, average of at least three independent experiments, read-out: Primary screening, growth inhibition values at 10 µM) [%] | IC50 ([2]; Trypanosoma cruzi, TULAHUEN, Vero) [µM] | Primary screening, parasite growth relative to the negative control (P. falciparum 3D7; compound at 1 µM) [%] | Primary screening, parasite growth relative to the negative control (P. falciparum 3D7; compound at 10 µM) [%] | Primary screening, parasite growth relative to the negative control (P. falciparum 3D7; compound at 100 µM) [%] | Primary screening, growth inhibition values at 1 µM [1, 3] | Primary screening, growth inhibition values at 10 µM [1, 4] | IC50 [2] [µM]
1 | CC(C)(C)Nc1ncnc2c1nc(-c1ccccc1)n2C(C)(C)C [Compound 1B] | 112 | 108 | 69.5 | 12.7 | 96.3 | 93 | 68.4 |  |  |  |  |  | 
2 | Cc1nc2c(OCc3ccccc3)ncnc2n1N(C)C [Compound 4M] |  |  |  |  |  |  |  | 100.27 | 101.23 | 88.99 | 88.68 | 89.08 | 
3 | CC(C)Oc1ncnc2c1ncn2C(C)C [MJ16] | 111 | 115 | 102 |  |  |  |  |  |  |  | 100.79 | 96.93 | 
4 | CN1CCN(n2c(-c3ccccc3)nc3c(OCc4ccccc4)ncnc32)CC1 [Compound 27] |  |  |  |  |  |  |  | 97.79 | 87.07 | 63.16 |  |  | 33.2
5 | CCOc1ncnc2c1ncn2C(C)C [MJ1] |  |  |  |  |  |  |  | 102.27 | 99.79 | 94.06 | 94.41 | 97.93 | 
6 | CCOc1ncnc2c1nc(C)n2Cc1ccccc1 [MJ8] |  |  |  |  |  |  |  | 107.34 | 100.82 | 82.46 |  |  | 67.9
7 | c1ccc(COc2ncnc3c2ncn3N2CCCCC2)cc1 [Compound 13H] |  |  |  |  |  |  |  | 100.86 | 97.31 | 67.76 | 92.39 | 93.99 | 
8 | CCOc1ncnc2c1ncn2Cc1ccccc1 [MJ7] | 104 | 105 | 53.8 |  |  |  |  |  |  |  | 79.69 | 95.54 | 
9 | Cc1nc2c(OCc3ccccc3)ncnc2n1C(C)C [MJ5] | 100 | 94.6 | 88.5 |  |  |  |  |  |  |  | 89.81 | 90.91 | 
10 | CC(C)(C)Nc1ncnc2c1ncn2C(C)(C)C [Compound 3F] |  |  |  |  |  |  |  | 110.21 | 108.90 | 35.36 |  |  | 64.7
11 | c1ccc(COc2ncnc3c2ncn3N2CCOCC2)cc1 [Compound 23] |  |  |  |  |  |  |  | 101.16 | 104.67 | 98.97 | 93.82 | 94.90 | 
12 | Cc1nc2c(OCc3ccccc3)ncnc2n1N1CCN(C)CC1 [Compound 28] |  |  |  |  |  |  |  | 90.78 | 89.44 | 44.36 |  |  | 40.4
13 | CCOc1ncnc2c1ncn2C(C)(C)C [MJ24] |  |  |  |  |  |  |  | 103.15 | 102.53 | 74.90 |  |  | 96.6
14 | Cc1nc2c(OCc3ccccc3)ncnc2n1N1CCOCC1 [Compound 22] |  |  |  |  |  |  |  | 97.98 | 78.53 | 73.65 |  |  | 
15 | Cc1nc2c(NC(C)(C)C)ncnc2n1C(C)(C)C [Compound 2A] |  |  |  |  |  |  |  | 110.87 | 112.26 | 30.73 | 96.86 | 88.71 | 
16 | Cc1nc2c(OC(C)C)ncnc2n1C(C)C [MJ17] |  |  |  |  |  |  |  | 105.71 | 108.49 | 94.00 | 97.87 | 93.73 | 
17 | c1ccc(COc2ncnc3c2nc(-c2ccccc2)n3N2CCOCC2)cc1 [Compound 21] |  |  |  |  |  |  |  | 96.68 | 87.35 | 81.22 |  |  | 34.8
18 | CN(C)n1c(-c2ccccc2)nc2c(OCc3ccccc3)ncnc21 [Compound 4] |  |  |  |  |  |  |  | 97.86 | 97.42 | 96.42 | 94.81 | 89.88 | 
19 | Cc1nc2c(OCc3ccccc3)ncnc2n1N1CCCCC1 [Compound 13M] |  |  |  |  |  |  |  | 101.41 | 100.79 | 87.03 | 91.73 | 92.01 | 
